Results reported in patent publication US7022855B2, “Halogen-substituted quinoline derivatives and ectoparasite control agent” (Meiji Seika Kaisha, Ltd., priority 2001, dated 2006).

Assays:
Format in all cases: in vivo
[1] = system: Dermanyssus gallinae; experiment: Miticidal effect against Dermanyssus gallinae (treated Pasteur pipette, contact test); conditions: 50 ppm in acetone, sucking adult mites, 24 hr after treatment, 25° C.; for pest or weed control at 50 ppm: Dermanyssus gallinae, read-out: Death rate, %
Excerpt: (§1) The tip of a Pasteur pipette was sealed with Parafilm, and a sample compound diluted with acetone to 50 ppm was poured into the pipette from its top. The Parafilm in the tip of the pipette was removed one min after the pouring to discharge the test solution, and the pipette was air dried. Thereafter, an absorbent cotton was inserted into the upper end of the pipette, and 10 sucking adult mites of Dermanyssus gallinae were released in the pipette. The tip of the pipette was sealed with Hematoseal, and the pipette was then placed in a desiccator containing a saturated ammonium sulfate solution in its bottom and was stored under fully darkened conditions at 25° C. The mites were observed under a stereomicroscope 24 hr after the treatment to judge whether the mites were dead or survived, followed by determination of the death rate of mites (%).

[2] = system: Ornithonyssus sylviarum; experiment: Miticidal effect against Ornithonyssus sylviarum (treated Pasteur pipette, contact test); conditions: 50 ppm in acetone, sucking adult mites, 24 hr after treatment, 25° C., read-out: Death rate, %
Excerpt: as §1, with “Ornithonyssus sylviarum” for “Dermanyssus gallinae”, “rate” for “rate of mites”

[3] = system: Haemaphysalis longicornis; experiment: Tickcidal effect against Haemaphysalis longicornis (dry film on glass Schale); conditions: larva ticks, 24 hr, 25° C., relative humidity 100%; for pest or weed control at 10 ppm: Haemaphysalis longicornis, read-out: Death rate, %; for Death rate, %: 10 ppm
Method: A test compound solution (1.0 ml) prepared by dissolving a test compound in acetone and diluting the solution with acetone to 10 ppm was dropped on a glass Schale having a diameter of 9 cm. Acetone was evaporated at room temperature to form a dry film of the test compound at the bottom of the Schale. Larva ticks of Haemaphysalis longicornis (40 to 100 head) were released in the Petri dish, and the Schale was then lidded and was hermetically sealed by covering with a polyethylene sheet. Rearing was carried out at a temperature of 25° C. and a relative humidity of 100% under fully darkened conditions. The number of ticks, which have fallen on their side, was counted 24 hr after the initiation of rearing. The death rate (%) was determined from the number of dead ticks. The test was repeated twice.

[4] = system: Ctenocephalides felis; experiment: Insecticidal effect against Ctenocephalides felis (dry film in glass tube); conditions: non-sucking adult fleas, 24 hr, 25° C., relative humidity 90%
Method: Test compound solutions (0.5 ml) prepared by dissolving a test compound in acetone and diluting the solutions with acetone to designated concentrations were placed respectively in glass tubes (inner diameter 2.6 cm, height 12 cm), and acetone was evaporated at room temperature to form a dry film of the test compound at the bottom of each glass tube. Non-sucking adult fleas (10 heads) of Ctenocephalides felis were released in the glass tubes. The glass tubes were then lidded. Whether the fleas were dead or survived was judged 24 hr after the initiation of rearing. The death rate (%) was determined from the number of dead fleas. Rearing was carried out at a temperature of 25° C. and a relative humidity of 90% under fully darkened conditions. The test was repeated three times.

Compound | pest or weed control at 50 ppm [1] [%] | pest or weed control at 50 ppm [2] [%] | other results
C=COC(=O)Oc1c(C)c(C)nc2ccc(F)c(F)c12 [Compound 51, 2,3-dimethyl-4-vinyloxycarbonyloxy-5,6-difluoroquinoline] | 90 | – | –
Cc1nc2ccc(F)c(F)c2c(OC(=O)/C=C/Cl)c1C [Compound 53, 2,3-dimethyl-4-(3-transchloroacryloyloxy)-5,6-difluoroquinoline] | 100 | – | –
CCOC(=O)Oc1c(C)c(CC)nc2ccc(F)c(F)c12 [Compound 33, 2-ethyl-3-methyl-4-ethoxycarbonyl-oxy-5,6-difluoroquinoline] | 100 | – | –
COC(=O)Oc1c(C)c(C)nc2ccc(F)c(F)c12 [Compound 25, 2,3-dimethyl-4-methoxycarbonyl-oxy-5,6-difluoroquinoline] | 100 | 100 | pest or weed control at 10 ppm [3]: 100%
CCCSC(=O)Oc1c(C)c(CC)nc2ccc(F)c(F)c12 [Compound 55, 2-ethyl-3-methyl-4-propanethiolcarbonyloxy-5,6-difluoroquinoline] | – | – | Death rate, % [1]: 100%
C#CCCOC(=O)Oc1c(C)c(CC)nc2ccc(F)c(F)c12 [Compound 56, 2-ethyl-3-methyl-4-(3-butynyl)oxycarbonyloxy-5,6-difluoroquinoline] | 95 | – | pest or weed control at 10 ppm [3]: 100%
CCc1nc2ccc(F)c(F)c2c(OC(=O)OC(C)C)c1C [Compound 14, 2-ethyl-3-methyl-4-isopropoxycarbonyloxy-5,6-difluoroquinoline] | – | 100 | –
CCc1nc2ccc(F)c(F)c2c(OC(=O)SC)c1C [Compound 39, 2-ethyl-3-methyl-4-methanethiolcarbonyloxy-5,6-difluoroquinoline] | – | – | Death rate, % ([4]; 4 ppm): 80%; Death rate, % [3]: 100%; Death rate, % [1]: 100%
C#CCOC(=O)Oc1c(C)c(CC)nc2ccc(F)c(F)c12 [Compound 41, 2-ethyl-3-methyl-4-propargyloxycarbonyloxy-5,6-difluoroquinoline] | 100 | – | pest or weed control at 10 ppm [3]: 100%
C=CCOC(=O)Oc1c(C)c(C)nc2ccc(F)c(F)c12 [Compound 57, 2,3-dimethyl-4-allyloxycarbonyloxy-5,6-difluoroquinoline] | 100 | – | –
CCC(=O)Oc1c(C)c(CC)nc2ccc(F)c(F)c12 [Compound 30, 2-ethyl-3-methyl-4-propionyloxy-5,6-difluoroqinoline] | – | – | Death rate, % [3]: 100%; Death rate, % [1]: 100%
CC(=O)Oc1c(C)c(C)nc2ccc(F)c(F)c12 [Compound 44, 2,3-dimethyl-4-acetoxy-5,6-difluoro-quinoline] | 100 | – | pest or weed control at 10 ppm [3]: 100%
CCc1nc2ccc(F)c(F)c2c(OC(C)=O)c1C [Compound 12, 2-ethyl-3-methyl-4-acetyloxy-5,6-difluoroquinoline] | 95 | 100 | –
Cc1nc2ccc(F)c(F)c2c(OC(=O)C2CC2)c1C [Compound 16, 2,3-dimethyl-4-cyclopropanecarbonyloxy-5,6-difluoroquinoline] | 100 | 80 | pest or weed control at 10 ppm [3]: 100%
Cc1nc2ccc(F)c(F)c2c(OC(=O)/C=C\Cl)c1C [Compound 54, 2,3-dimethyl-4-(3-cischloroacryloyloxy)-5,6-difluoroquinoline] | 100 | – | –
CCCCOC(=O)Oc1c(C)c(CC)nc2ccc(F)c(F)c12 [Compound 13, 2-ethyl-3-methyl-4-butoxycarbonyloxy-5,6-difluoroquinoline] | 85 | – | –
COC(=O)Oc1c(C)c(C)nc2ccc(Cl)c(Cl)c12 [Compound 67, 2,3-dimethyl-4-methoxycarbonyloxy-5,6-dichloroquinoline] | 100 | – | –
CCc1nc2ccc(F)c(F)c2c(OC(=O)C2CC2)c1C [Compound 2, 2-ethyl-3-methyl-4-cyclopropanecarbonyloxy-5,6-difluoroquinoline] | 100 | 100 | Death rate, % ([4]; 4 ppm): 97%; Death rate, % ([4]; 20 ppm): 100%; pest or weed control at 10 ppm [3]: 100%
CCc1nc2ccc(F)c(Cl)c2c(OC(C)=O)c1C [Compound 19, 2-ethyl-3-methyl-4-acetyloxy-5-chloro-6-fluoroquinoline] | – | 100 | Death rate, % ([4]; 4 ppm): 100%
CCc1nc2ccc(F)c(Cl)c2c(OC(=O)C2CC2)c1C [Compound 21, 2-ethyl-3-methyl-4-cyclopropanecarbonyloxy-5-chloro-6-fluoroquinoline] | – | 100 | –
CC(=O)Oc1c(C)c(C)nc2ccc(Cl)c(Cl)c12 [Compound 65, 2,3-dimethyl-4-acetoxy-5,6-dichloro-quinoline] | 80 | – | –
COC(=O)Oc1c(C)c(C)nc2ccc(F)c(C(F)(F)F)c12 [Compound 62, 2,3-dimethyl-4-methoxycarbonyloxy-5-trifluoromethyl-6-fluoroquinoline] | 100 | – | –
CCc1nc2ccc(F)c(F)c2c(OC(=O)C(C)C)c1C [Compound 48, 2-ethyl-3-methyl-4-isobutyryloxy-5,6-difluoroquinoline] | 100 | – | –
C#CCCOC(=O)Oc1c(C)c(C)nc2ccc(F)c(F)c12 [Compound 52, 2,3-dimethyl-4-(3-butynyl)oxycarbonyloxy-5,6-difluoroquinoline] | 100 | – | Death rate, % ([4]; 4 ppm): 70%; pest or weed control at 10 ppm [3]: 100%
CSC(=O)Oc1c(C)c(C)nc2ccc(F)c(F)c12 [Compound 46, 2,3-dimethyl-4-methanethiolcarbonyloxy-5,6-difluoro-quinoline] | – | – | Death rate, % [3]: 100%; Death rate, % [1]: 100%
C#CCCCC(=O)Oc1c(C)c(C)nc2ccc(F)c(F)c12 [Compound 58, 2,3-dimethyl-4-(5-hexynoyloxy)-5,6-difluoroquinoline] | 80 | – | –
2,3-dimethyl-4-propargloxycarbonyloxy-5,6-difluoroquinoline [Compound 50] | – | – | Death rate, % [3]: 100%; Death rate, % [1]: 95%
CCOC(=O)Oc1c(C)c(C)nc2ccc(F)c(F)c12 [Compound 45, 2,3-dimethyl-4-ethyloxycarbonyloxy-5,6-difluoroquinoline] | 100 | – | –
CCc1nc2ccc(F)c(F)c2c(OC(=O)OC)c1C [Compound 24, 2-ethyl-3-methyl-4-methoxycarbonyloxy-5,6-difluoroquinoline] | 100 | 100 | Death rate, % ([4]; 4 ppm): 84%; Death rate, % ([4]; 20 ppm): 100%; pest or weed control at 10 ppm [3]: 100%
CCc1nc2cc(F)c(F)cc2c(OC(=O)C2CC2)c1C [Compound 1, 2-ethyl-3-methyl-4-cyclopropanecarbonyloxy-6,7-difluoroquinoline] | – | 80 | Death rate, % ([4]; 20 ppm): 100%
